Measured values reported in patent US20240199542A1, “SUBSTITUTED PYRROLIDIN-2-ONES, SALTS THEREOF AND THEIR USE AS HERBICIDALLY ACTIVE SUBSTANCES” (Bayer Aktiengesellschaft, priority 2021, published 2024).

How the values were obtained:
Type in all cases: in vivo
[1] = system: Polygonum convolvulus (POLCO); assay: Herbicidal post-emergence action; settings: 1280 g/ha, assessed after ca. 3 weeks
Text: (§1) Seeds of mono- and dicotyledonous weed plants and crop plants were sown, in plastic or organic planting pots, in sandy loam, covered with soil and grown in a greenhouse under controlled growth conditions. 2 to 3 weeks after sowing, the test plants were sprayed in the single-leaf stage. The compounds according to the invention, formulated in form of wettable powders (WP) or as emulsifiable concentrates (EC), were sprayed onto the green plant parts as aqueous suspension or emulsion, with the addition of 0.5% of an additive, at an application rate of 600 1 of water/ha (converted). The test plants were placed in the greenhouse for ca. 3 weeks under optimum growth conditions, and then the effect of the preparations was assessed visually in comparison with untreated controls (herbicidal effect in percent (%): 100% effect=plants have died off, 0% effect=as control plants).
(§2) Tables B1 to B16 below show the effects of selected compounds of the general formula (I) according to table 1 on various harmful plants and an application rate corresponding to 1280 g/ha or 320 g/ha obtained by the experimental procedure mentioned above.

[2] = system: Lolium multiflorum (LOLMU); assay: Herbicidal pre-emergence action; settings: 1280 g/ha, graded after ca. 3 weeks
Text: (§3) Seeds of mono- and dicotyledonous weed plants and crop plants were sown, in plastic or organic planting pots, in sandy loam and covered with soil. The compounds according to the invention, formulated in the form of wettable powders (WP) or as emulsifiable concentrates (EC), were applied to the surface of the covering soil as aqueous suspension or emulsion, with the addition of 0.5% of an additive, at an application rate of 600 1 of water/ha (converted).
(§4) Following treatment, the pots were placed in a greenhouse and kept under optimum growth conditions for the test plants. The visual grading of the damage to the test plants was carried out after ca. 3 weeks in comparison to untreated controls (herbicidal effect in percent (%): 100% effect=plants have died off, 0% effect=as control plants).
(§5) Tables A1 to A16, below, show the effects of selected compounds of the general formula (I) according to table 1 on various harmful plants and an application rate corresponding to 1280 g/ha or lower obtained by the experimental procedure mentioned above.

[3] = system: Polygonum convolvulus (POLCO); assay: Herbicidal pre-emergence action; settings: graded after ca. 3 weeks
Text: as §3, §4, §5

[4] = system: Alopecurus myosuroides (ALOMY); assay: Herbicidal pre-emergence action; settings: 1280 g/ha, graded after ca. 3 weeks
Text: as §3, §4, §5

Avena fatua (AVEFA) [5] = assay: Herbicidal pre-emergence action; settings: graded after ca. 3 weeks
Text: as §3, §4, §5

[6] = system: Echinochloa crus-galli (ECHCG); assay: Herbicidal pre-emergence action; settings: 1280 g/ha, graded after ca. 3 weeks
Text: as §3, §4, §5

[7] = system: Lolium multiflorum (LOLMU); assay: Herbicidal post-emergence action; settings: 1280 g/ha, assessed after ca. 3 weeks
Text: as §1, §2

[8] = system: Alopecurus myosuroides (ALOMY); assay: Herbicidal post-emergence action; settings: assessed after ca. 3 weeks
Text: as §1, §2

Setaria viridis (SETVI) [9] = assay: Herbicidal post-emergence action; settings: 1280 g/ha, assessed after ca. 3 weeks
Text: as §1, §2

Avena fatua (AVEFA) [10] = assay: Herbicidal post-emergence action; settings: assessed after ca. 3 weeks
Text: as §1, §2

[11] = system: Echinochloa crus-galli (ECHCG); assay: Herbicidal post-emergence action; settings: 1280 g/ha, assessed after ca. 3 weeks
Text: as §1, §2

[12] = system: Digitaria sanguinalis (DIGSA); assay: Herbicidal post-emergence action; settings: 320 g/ha, assessed after ca. 3 weeks
Text: as §1, §2

Viola tricolor (VIOTR) = assay: Herbicidal pre-emergence action; settings: graded after ca. 3 weeks
Text: as §3, §4, §5

[13] = system: Cyperus esculentus (CYPES); assay: Herbicidal pre-emergence action; settings: 1280 g/ha, graded after ca. 3 weeks
Text: as §3, §4, §5

Setaria viridis (SETVI) [14] = assay: Herbicidal pre-emergence action; settings: 1280 g/ha, graded after ca. 3 weeks
Text: as §3, §4, §5

[15] = system: Digitaria sanguinalis (DIGSA); assay: Herbicidal pre-emergence action; settings: 320 g/ha, graded after ca. 3 weeks
Text: as §3, §4, §5

Lolium rigidum (LOLRI) = assay: Herbicidal pre-emergence action; settings: 320 g/ha, graded after ca. 3 weeks
Text: as §3, §4, §5

Brassica napus (BRSNW) = assay: Post-emergence effects on crop plants; settings: application rate 320 g/ha, crop plant Brassica napus (BRSNW)
Text: as §1
Tables D1 to D3 below show the effects of selected compounds of the general formula (I) according to table 1 on various crop plants and an application rate corresponding to 320 g/ha or below obtained by the experimental procedure mentioned above in biology section B.

Veronica persica (VERPE) = assay: Herbicidal pre-emergence action; settings: 1280 g/ha, graded after ca. 3 weeks
Text: as §3, §4, §5

SMILES	Post-emergence activity against POLCO [1] [%]	Pre-emergence activity against LOLMU [2] [%]	Pre-emergence activity against ALOMY [4] [%]	Pre-emergence activity against AVEFA (Avena fatua (AVEFA) [5]; 1280 g/ha) [%]	Pre-emergence activity against ECHCG [6] [%]	Post-emergence activity against LOLMU [7] [%]	Post-emergence activity against ALOMY ([8]; 1280 g/ha) [%]	Post-emergence activity against SETVI (Setaria viridis (SETVI) [9]) [%]	Post-emergence activity against AVEFA (Avena fatua (AVEFA) [10]; 1280 g/ha) [%]	Post-emergence activity against ECHCG [11] [%]	also measured
CCCNC(=O)CC1CCC(=O)N1Cc1cccc(F)c1F (racemic) [Example I-110]	80	–	–	–	–	–	–	–	–	–	–
COC(=O)C(C(=O)CC1CCC(=O)N1Cc1cccc(F)c1F)C(=O)OC (racemic) [Example I-176]	90	90	90	100	90	80	90	80	80	90	Pre-emergence activity against POLCO ([3]; 1280 g/ha): 80%
Cc1cccc(CN2C(=O)CCC2CC(=O)O)c1C (racemic) [Example I-194]	–	–	–	–	–	–	–	–	–	–	Post-emergence activity against DIGSA [12]: 90%
O=C(CC1CCC(=O)N1Cc1cccc(F)c1F)Nc1nnc(C(F)F)s1 (racemic) [Example I-195]	–	–	–	–	–	–	–	–	–	–	Pre-emergence activity against VIOTR (Viola tricolor (VIOTR); 320 g/ha): 80%
COC(=O)[C@H](Cc1c[nH]cn1)NC(=O)CC1CCC(=O)N1Cc1cccc(F)c1F (single isomer, unassigned) [Example I-037]	80	90	90	100	90	–	80	–	90	–	Pre-emergence activity against CYPES [13]: 100%; Pre-emergence activity against SETVI (Setaria viridis (SETVI) [14]): 90%
O=C(O)CC1CCC(=O)N1Cc1cccc(F)c1F (stereo not shown) [Example I-003, 2-[1-[(2,3-difluorophenyl)methyl]-5-oxo-pyrrolidin-2-yl]acetic acid]	80	90	90	90	80	90	90	80	90	90	Pre-emergence activity against DIGSA [15]: 90%; Pre-emergence activity against POLCO ([3]; 1280 g/ha): 90%; Pre-emergence activity against LOLRI (Lolium rigidum (LOLRI)): 80%; Pre-emergence activity against SETVI (Setaria viridis (SETVI) [14]): 80%; Pre-emergence activity against VIOTR (Viola tricolor (VIOTR); 1280 g/ha): 90%; post-emergence activity against BRSNW (Brassica napus (BRSNW)): 0%
Cc1ccc(OCCOC(=O)CC2CCC(=O)N2Cc2cccc(F)c2F)cc1 (stereo not shown) [Example I-034, 2-(4-methylphenoxy)ethyl 2-[1-[(2,3-difluorophenyl)methyl]-5-oxo-pyrrolidin-2-yl]acetate]	80	–	90	100	80	90	80	80	–	90	Pre-emergence activity against VERPE (Veronica persica (VERPE)): 100%
O=C(CC1CCC(=O)N1Cc1cccc(F)c1F)NN1CCCC1 (stereo not shown) [Example I-200, 2-[1-[(2,3-difluorophenyl)methyl]-5-oxo-pyrrolidin-2-yl]-N-(pyrrolidin-1-yl)acetamide]	–	–	–	–	–	–	–	–	–	–	Pre-emergence activity against DIGSA [15]: 80%; Pre-emergence activity against POLCO ([3]; 320 g/ha): 90%; Pre-emergence activity against AVEFA (Avena fatua (AVEFA) [5]; 320 g/ha): 100%; Pre-emergence activity against VIOTR (Viola tricolor (VIOTR); 320 g/ha): 80%; Post-emergence activity against DIGSA [12]: 80%; Post-emergence activity against ALOMY ([8]; 320 g/ha): 80%; Post-emergence activity against AVEFA (Avena fatua (AVEFA) [10]; 320 g/ha): 80%
